Drawing on patent US11117892B2, “Pyrrolo-pyridine derivative compound, method for preparing same, and pharmaceutical composition containing same as active ingredient for prevention or treatment of protein kinase-related diseases” (DAEGU-GYEONGBUK MEDICAL INNOVATION FOUNDATION, priority 2017, dated 2021), this text covers cell proliferation for 1 compound.

This experiment concerns mouse pancreatic β-cell. The experiment is described as follows: mouse pancreatic β-cell proliferation (Ki-67/insulin staining). It is filed as cell-based. Conditions: mouse pancreatic β-cells cultured with compound for 72 hours. As to the method:
It is known that when human β-cells are treated with harmine that inhibits DYRK1A, the proliferation of β-cells is promoted by increasing the transcription factor activity by inhibiting the phosphorylation of NFAT known as a phosphorylation substrate of DYRK1A.
Particularly, pancreatic Langerhans islet tissues were extracted from the mouse at 8 weeks old, followed by culture in RPMI1640 medium supplemented with 10% FCS (fetal calves serum), 5.5 mM glucose and 1% penicillin-streptomycin for 24 hours.
Next, in order to separate β-cells as single cells from the Langerhans islet, cells were washed twice with PBS, followed by centrifugation. The collected cells were left in the medium supplemented with 1 mg/ml of trypsin for 10 minutes at 37° C. The cells were shaken using a pipette every 10 seconds for 5 minutes. Trypsin reaction was terminated by adding RPMI1640 containing 10% FCS (fetal calves serum), 5.5 mM glucose and 1% penicillin-streptomycin, followed by centrifugation to collect single cells.
Then, the single cells were loaded on the laminin-coated cover glass and stabilized for 24 hours. The cells were cultured in the medium containing the compound of the present invention for 72 hours. […] The cells double-stained with Ki-67/insulin were counted under Olympus F-1000 confocal fluorescence microscope to investigate cell proliferation.

For `COc1ccc2c(c1)[nH]c1c(C)nccc12` [harmine, reference compound], the cell proliferation entry was “active”.
